This note sets out measurements from patent publication US20160151305A1, “AGENT OR METHOD FOR TREATEMENT AND/OR PREVENTION OF ACCELERATED ENERGY EXPENDITURE AND/OR DIMINISHED ENERGY EXPENDITURE FUNCTIONALITY” (MATSUTANI CHEMICAL INDUSTRY CO., LTD., priority 2013, published 2016).

Experiment [1] in a line: Sensory test by continuous administration of D-psicose in humans (interview). The class given is in vivo. The settings on record: for Changes: Body became easier to move (number of subjects) / Changes: Body felt lighter (number of subjects) / Changes: Body felt warmer (number of subjects) / Changes: Felt better (number of subjects) / Changes: Felt less fatigue (number of subjects) / Changes: No change (number of subjects): 5 healthy humans, once a day for 2 weeks, sample A = D-psicose 1.0 g, B = 2.5 g, C = 5.0 g. How it is done: The test was conducted for 5 healthy individuals with no smoking habit (average age of 35.0; 3 males and 2 females). Prior to the experiment, the subjects were fully informed of the experiment contents in line with the guidelines of the Declaration of Helsinki, and the experiment was conducted with the informed consent of all subjects. The subjects were each asked to continuously take sample A (D-psicose, 1.0 g), once a day for 2 weeks. The subjects were then interviewed to see if there was any physical changes. After 1 week, the same subjects were continuously given sample B (D-psicose, 2.5 g) for 2 weeks in the same manner as for sample A, and were interviewed again. The same procedure was repeated after 1 week by continuously giving sample C (D-psicose, 5.0 g) to the same subjects, followed by an interview.

A short description of experiment [2]: Metabolism test by single administration of D-psicose in humans (indirect calorimetry of breath). Type of experiment: in vivo. On the procedure: Effects of single administration of D-psicose on energy expenditure, carbohydrate combustion, and lipid combustion were examined in humans. Energy metabolism was calculated by indirect calorimetry from measurements of subjects' breath (oxygen consumption and carbon dioxide discharge). The test was conducted by a single-blinded crossover study of two groups of 6 healthy individuals with no smoking habit (average age of 34.8; 3 males and 3 females; average BMI 21.4 kg/m^2). Prior to the experiment, the subjects were fully informed of the experiment contents in line with the guidelines of the Declaration of Helsinki, and the experiment was conducted with the informed consent of all subjects. The subjects were fasted for 12 hours before starting the test, and were each given a test solution (150 ml) prepared by adding 5 g of D-psicose, or a test solution (150 ml) prepared by adding 10 mg of high sweetener aspartame to provide the same sweetness as control food. The concentration of the test solution was 3.3% for the D-psicose group, and 0.005% for the aspartame group. After giving the test solution, the subjects were given breakfast (hamburg steak with rice; total calorie: 571 kcal; protein 13.4%, lipid 25.3%, carbohydrate 61.3%). After the breakfast, the subjects were rested on the bed for 20 min in the resting supine position to acclimate to the environment, and the breath was measured with an Aero Monitor AE-310S (Minato Medical Science) connected to a breathing hood. The measurement was ended after 4 hours from the breakfast. During the measurement, the oxygen consumption and the carbon dioxide discharge of each subject were recorded every minute, and energy expenditure, carbohydrate combustion, and lipid combustion were calculated from the measured values using the Elwyn energy equation. Throughout the breath measurement, the subjects were rested on the bed in the resting supine position, and were kept awake and fasted. The results were divided by subject ‘ s body weights, and were represented as mean values and standard deviation. […]

Experiment [3] is described as follows: Metabolism test by long-term administration of D-psicose in rats (hourly energy expenditure). The class given is in vivo, male Wistar rats. The following applies: feed with 50.0 g/kg D-psicose + sucrose vs sucrose group, after 5 to 7 weeks, at hour 11 in the light period and hour 5 and 6 in the dark period, FIG. 2. The source says:
Effects of long-term administration of D-psicose on energy metabolism were examined using male Wistar rats (3 weeks of age; purchased from Japan SLC). The rats were preliminarily maintained for 1 week with a commercially available powder feed (product name MF; Oriental Yeast Co., Ltd.), and were divided into 2 groups so as to be uniform in body weight upon measuring the body weight (each group contained eight rats). The two groups are a sucrose administered group, and a sucrose+D-psicose administered group.
The two groups of rats were allowed free access to experiment feed (Table 2) and water, and maintained under specific conditions (temperature 22±1° C., humidity 58±2%, light period 8:00 to 20:00, dark period 20:00 to 8:00 next morning). The energy metabolism was measured 5 to 7 weeks after the experiment feed was given. […] The rat breath and the room air were collected into a Douglas bag (Fukuda Sangyo) at 1-hour intervals, and the oxygen and carbon dioxide concentrations were measured with a gas concentration analyzers G-102 and LX-710 (Iijima Electronics Corporation) for 24 hours. The amounts of oxygen consumed by the rat, and the amount of generated carbon dioxide were calculated from the oxygen concentration and the carbon dioxide concentration in the breath, and the oxygen concentration and the carbon dioxide concentration in room air. […]

Experiment [4] can be described thus: Metabolism test by single oral administration of D-psicose in rats (indirect calorimetry). Type of experiment: in vivo, male Sprague-Dawley rats. The following applies: glucose+fructose+psicose (+Psi group) vs glucose+fructose (-Psi group), mean value every 12 minutes, FIG. 1. The source says:
Effects of single oral administration of D-psicose on energy metabolism were examined using male Sprague-Dawley rats (7 weeks of age; purchased from CLEA Japan). The rats were preliminarily maintained for 1 week with a commercially available solid feed (CE-2; CLEA Japan), and were divided into 3 groups so as to be uniform in body weight upon measuring the body weight (each group contained eight rats).
The rats were individually put in a cage of a respiratory metabolism measurement system for small animals MK-5000 (Muromachi Kikai Co., Ltd.) at 16 o'clock on the day before a calorimetric test. The rats were measured by indirect calorimetry, and acclimated in the dark without food (dark period).
The rats were placed under a light at 10 o'clock next morning (light period). […] The solution concentrations are different to match total energy amounts. […] For the rest of the experiment, the rats were allowed access to only purified water, and the calorific value was continuously measured until 10 o'clock next day at 23° C. under light.
Resting energy metabolism (resting energy expenditure; hereinafter, “REE”, kcal/min) was calculated by using the Weir equation, and the result was divided by body weight (hereinafter, “BW”, in kg). The mean of measured values from 12 min to 60 min before the administration was regarded as a value at hour 0, and amounts of change were calculated over time. […]

Experiment [5] can be described thus: Human tests, single D-psicose administration with pure carbohydrate food, energy expenditure. The following applies: humans. The class given is in vivo.
The mark [6] stands for this setting: 5 g D-psicose immediately before lipid-containing breakfast vs aspartame control, 20 minutes to 4 hours from breakfast, FIG. 3.

“Also recorded” adds a separate entry of the source.

Turning to `O=C(CO)[C@H](O)[C@H](O)[C@H](O)CO` [A, D-psicose], in experiment [1], the “Changes: Body became easier to move (number of subjects)” value (“Changes: Body became easier to move” below) is reported as 1, the “Changes: Body felt lighter (number of subjects)” value (“Changes: Body felt lighter” for short) was found to be 1, the “Changes: Body felt warmer (number of subjects)” value (“Changes: Body felt warmer” for short) is on record as 1 and the “Changes: Felt better (number of subjects)” value (“Changes: Felt better” below) came out at 1. In experiment [1], the “Changes: Felt less fatigue (number of subjects)” value (from here on “Changes: Felt less fatigue”) is 1 and the “Changes: No change (number of subjects)” value is given as 4. In addition, the “interview result on repeat test” value in experiment [1] (humans, sample A (D-psicose 1.0 g) again for 2 weeks, 1 week after testing with sample C) is “produced the same result”.

As to `O=C(CO)[C@H](O)[C@H](O)[C@H](O)CO` [B, D-psicose], in experiment [1], the “Changes: Body became easier to move” value was 2, the “Changes: Body felt lighter” value stood at 3, the “Changes: Body felt warmer” value came to 3 and the “Changes: Felt better” value stood at 2. For the same compound, in experiment [1], the “Changes: Felt less fatigue” value is 2 and the “Changes: No change (number of subjects)” value is 0.

For `O=C(CO)[C@H](O)[C@H](O)[C@H](O)CO` [C, D-psicose], in experiment [1], the “Changes: Body became easier to move” value is 3, the “Changes: Body felt lighter” value amounted to 5, the “Changes: Body felt warmer” value was found to be 5 and the “Changes: Felt better” value is on record as 2. Further, in experiment [1], the “Changes: Felt less fatigue” value came to 2 and the “Changes: No change (number of subjects)” value came to 0.

Take `O=C(CO)[C@H](O)[C@H](O)[C@H](O)CO` [D-psicose]: in experiment [2] (setting [6]), the “energy expenditure (REE) per body weight” value was “significantly increased” and the “lipid combustion (FEE) per body weight” value is listed as “significantly increased”. Also, the “energy metabolism result at lower dose” value in experiment [2] (single D-psicose dose 2.4 g) was “did not show any difference”. The “hourly energy expenditure per measured rat weight” value in experiment [3] is listed as “significantly higher”. The “physical changes reported in interview” value in experiment [1] (humans, continuous intake of 2.5 g or more of D-psicose for 2 weeks) is “The subjects all experienced some changes; also recorded: increase or improve body temperature and other sensations”. The “AREE/BW (change of resting energy expenditure per body weight, water group subtracted)” value in experiment [4] was “no significant difference”. In addition, the “effect on energy expenditure” value in experiment [5] is “did not have effect on energy expenditure”.
